Test system: external tasters
Experiment: Cajun BBQ potato chips focus group taste test
Type: in vivo, human
Conditions: chips with 3 ppm compound; eleven panelists
Method: Two solid savory flavor concentrate compositions were prepared by spray drying procedures equivalent to those reported in Example 35. One savory flavor concentrate sample, comprising 0.01% (wt/wt) of the compound of Example 1 was prepared via from the compound of Example 1, Neobee M-5 medium chain triglycerides, N-Lok 1930 modified food starch, and maltodextrin. Another savory flavor concentrate sample, comprising 0.01% (wt/wt) of the compound of Example 24 was similarly prepared via from the compound of Example 24, Neobee M-5 medium chain triglycerides, N-Lok 1930 modified food starch, and maltodextrin. A basic dry seasoning mix for providing Cajun flavor for the chips was prepared by dry blending the ingredients in Table 38-1 using a […] blender for 5 minutes at 40-80 rpms using a wire whip attachment. Kettle® Unsalted potato chips were hand broken into reasonably uniform 1⁄2''×1⁄2'' pieces and placed in a polyethylene 26.7 cm×27.9 cm non-vented food bag. The chips were then heated in an Amana Commercial 1200 watt microwave for 20 seconds to release oils, and so the seasoning would adhere to the chips. […] The panelists evaluated the four sample types of Cajun BBQ chips in a Focus Group taste test procedure and were instructed to write comments on several attributes: sweet, BBQ, Cajun spice, pepper, onion, salt, potato, umami, off tastes, other, and liking or disliking. […]

SMILES | Panelists reporting higher intensity of Cajun spice and pepper flavors
CCCC(CCC)NC(=O)c1ccc2c(c1)OCO2 [Example 1, N-(heptan-4-yl)benzo[d][1,3]dioxole-5-carboxamide] | 9/11
COc1ccc(CNC(=O)C(=O)NCCc2ccccn2)c(OC)c1 [Example 24, N-(2,4-Dimethoxy-benzyl)-N′-(2-pyridin-2-yl-ethyl)-oxalamide] | 9/11

Source: patent US8318947B2, “Comestible compositions comprising high potency savory flavorants, and processes for producing them” (Senomyx, Inc., priority 2006, dated 2012)
